Laboratory results: patent publication EP4310072A1, “ULTRAVIOLET ABSORBER, COMPOSITION, COSMETIC PRODUCT, AND PROCESS FOR PREPARING COSMETIC PRODUCT” (MFCI (Huanggang) Co., Ltd., priority 2021, dated 2023)

Tests used:
Type in all cases: physicochemical
[1] = Particle size testing by laser diffraction (Malvern MS2000 laser particle size analyzer, dispersant water); conditions: for αd5: Vd5/Vd100, distribution coefficient of particles with a particle size of 5 µm; for αd10: Vd10/Vd100, distribution coefficient of 10 µm particles; for Consistency / Span (β) / Specific surface area / Surface area-average particle size D[3,2] / Volume-average particle size D[4,3]: laser diffraction, dispersant water; for d(0.9): maximum particle size, cumulative distribution 90%; for d(0.5): median particle size, cumulative distribution 50%; for d(0.1): minimum particle size, cumulative distribution 10%; for Particle size distribution d(0.9) (integer) / Particle size distribution d(0.1) (integer): rounded to integer, Tables 14 and 16
Procedure: The particle size distribution and characteristics of the ultraviolet absorber described herein, such as the minimum particle size d(0.1), the d(0.9) and the consistency are determined by a laser diffraction method, and determination conditions are as follows: • particle size analyzer: Malvern MS2000 laser particle size analyzer; • name of an injector: Hydro 2000MU (A); • analysis mode: general; • particle size range: 0.02-2000 µm; • name of a dispersant: water.

[2] = First dissolution experiment: sample stirred into the oil phase of an SPF 25 sunscreen oil, 3% DHHB; conditions: added concentration 3%, 25°C, stirring rate 150 r/min
Procedure: (§1) In this dissolution experiment, the agglomeration degree of the ultraviolet absorbers in the above examples and comparative examples was evaluated, and each sample of a certain mass was added into an oil phase and stirred at room temperature (25°C) at a stirring rate of 150 r/min for dissolution. The dissolution experiment was carried out on raw materials for preparation of a sunscreen oil with a sun protection factor (SPF) value of 25. Table 13 Raw material table
Except that DHHB is a solid, all other components are liquid oils. A production process includes: sequentially adding various components into an oil pot, and enabling a stirring function until the components are completely dissolved. Table 14 Sample property test result table

[3] = Second dissolution experiment: sample stirred into the oil phase of an SPF 25 sunscreen oil, 6% DHHB; conditions: for increase rate of dissolution time: added concentration 6% versus 3%; for Sample dissolution time: added concentration 6%, 25°C, stirring rate 150 r/min, oil phase
Procedure: as §1, with “an SPF” for “a sun protection factor (SPF)”, “15” for “13”
Except that DHHB is a solid, all other components are liquid oils. A production process includes: sequentially adding various components into an oil pot, and enabling a stirring function until the components are completely dissolved. Table 16 Sample property test result table

SMILES	difference between D[3,2] and D[4,3] [1]	αd5 [1]	αd10 [1]	Consistency [1]	Span (β) [1]	Specific surface area [1]	Surface area-average particle size D[3,2] [1]	Volume-average particle size D[4,3] [1]	d(0.9) [1]	d(0.5) [1]	d(0.1) [1]	Particle size distribution d(0.9) (integer) [1]	Particle size distribution d(0.1) (integer) ([1]; in µm)	Sample dissolution time [2]	increase rate of dissolution time [3]	Sample dissolution time [3]	Particle size distribution d(0.1) (integer) [1]
CCCCCCOC(=O)c1ccccc1C(=O)c1ccc(N(CC)CC)cc1O [Comparative Example 1]	128.616 µm	0.005	0.122	2.44	10.995	0.258 m^2/g	23.263 µm	151.879 µm	518.950 µm	51.970 µm	10.517 µm	519 µm	11	151 min	about 38%	208 min	
CCCCCCOC(=O)c1ccccc1C(=O)c1ccc(N(CC)CC)cc1O [Comparative Example 2, reference compound]												1000 µm		134 min	about 50%	202 min	850 (±20)
CCCCCCOC(=O)c1ccccc1C(=O)c1ccc(N(CC)CC)cc1O [Example 1, 2-(4-N,N-diethylamino-2-hydroxybenzoyl) hexyl benzoate]	11.727 µm	0.0160	0.111	0.638	2.008	0.331 m^2/g	18.113 µm	29.840 µm	57.575 µm	23.866 µm	9.647 µm	58 µm					
CCCCCCOC(=O)c1ccccc1C(=O)c1ccc(N(CC)CC)cc1O [Example 2, 2-(4-N,N-diethylamino-2-hydroxybenzoyl) hexyl benzoate]	8.865 µm	0.006	0.104	0.578	1.869	0.325 m^2/g	18.463 µm	27.328 µm	51.867 µm	22.470 µm	9.862 µm	52 µm	10	< 5 min		< 5 min	
CCCCCCOC(=O)c1ccccc1C(=O)c1ccc(N(CC)CC)cc1O [Example 3, 2-(4-N,N-diethylamino-2-hydroxybenzoyl) hexyl benzoate]	17.543 µm	0.019	0.107	0.691	2.23	0.295 m^2/g	20.356 µm	37.899 µm	77.626 µm	30.410 µm	9.803 µm	78 µm	10	< 5 min		< 5 min	
CCCCCCOC(=O)c1ccccc1C(=O)c1ccc(N(CC)CC)cc1O [Example 4, 2-(4-N,N-diethylamino-2-hydroxybenzoyl) hexyl benzoate]	11.215 µm	0.002	0.074	0.62	1.998	0.284 m^2/g	21.149 µm	32.364 µm	62.903 µm	25.939 µm	11.066 µm	63 µm	11	< 5 min		< 5 min	
CCCCCCOC(=O)c1ccccc1C(=O)c1ccc(N(CC)CC)cc1O [Example 5, 2-(4-N,N-diethylamino-2-hydroxybenzoyl) hexyl benzoate]	21.881 µm	0.037	0.095	0.596	1.944	0.281 m^2/g	21.390 µm	43.271 µm	43.271 µm	21.390 µm	10.747 µm	43 µm	10	< 5 min		< 5 min	
